In ChEMBL document CHEMBL1641363, “Fragment-based discovery of 6-substituted isoquinolin-1-amine based ROCK-I inhibitors” (Bioorg Med Chem Lett, 2011):

Assays:
[1] = Half life in rat liver microsome; format: ADME; details: liver microsomes
[2] = molecular target: T1, Ephrin type-A receptor 8 (Homo sapiens) (UniProt P29322); details: 10 uM
T1 sequence (whole entry): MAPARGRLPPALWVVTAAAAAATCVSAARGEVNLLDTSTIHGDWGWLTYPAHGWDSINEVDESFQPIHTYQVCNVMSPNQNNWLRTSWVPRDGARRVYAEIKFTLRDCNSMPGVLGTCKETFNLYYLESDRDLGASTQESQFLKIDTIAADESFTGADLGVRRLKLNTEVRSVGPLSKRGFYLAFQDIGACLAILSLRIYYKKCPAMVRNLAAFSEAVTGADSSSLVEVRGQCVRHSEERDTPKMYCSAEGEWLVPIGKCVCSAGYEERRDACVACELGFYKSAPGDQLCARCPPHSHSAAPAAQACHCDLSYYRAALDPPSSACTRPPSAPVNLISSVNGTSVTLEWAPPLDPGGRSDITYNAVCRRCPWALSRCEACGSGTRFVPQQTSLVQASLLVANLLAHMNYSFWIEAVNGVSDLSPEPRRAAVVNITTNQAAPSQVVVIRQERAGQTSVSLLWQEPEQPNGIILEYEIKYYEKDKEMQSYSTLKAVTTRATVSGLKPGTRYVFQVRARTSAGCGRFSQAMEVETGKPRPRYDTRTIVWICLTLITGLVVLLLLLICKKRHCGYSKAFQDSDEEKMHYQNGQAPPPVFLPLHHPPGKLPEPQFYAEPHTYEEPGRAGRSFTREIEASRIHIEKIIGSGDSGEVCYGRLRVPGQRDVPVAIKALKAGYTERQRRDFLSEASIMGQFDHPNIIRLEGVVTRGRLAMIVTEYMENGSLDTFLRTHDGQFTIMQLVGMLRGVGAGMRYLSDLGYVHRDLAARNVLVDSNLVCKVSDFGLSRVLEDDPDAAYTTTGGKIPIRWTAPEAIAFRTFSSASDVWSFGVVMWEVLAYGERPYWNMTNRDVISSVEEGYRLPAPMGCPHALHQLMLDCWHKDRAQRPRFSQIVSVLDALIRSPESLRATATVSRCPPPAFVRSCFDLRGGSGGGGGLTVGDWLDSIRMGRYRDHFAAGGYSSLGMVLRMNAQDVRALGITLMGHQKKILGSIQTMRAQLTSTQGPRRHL
Description: Inhibition of EPHA8 at 10 uM

[3] = molecular target: Rho-associated protein kinase 1 (Homo sapiens, UniProt Q13464); details: 10 uM
Description: Inhibition of ROCK1 at 10 uM

[4] = Half life in mouse liver microsome; format: ADME; details: liver microsomes
[5] = molecular target: T2, Serine/threonine-protein kinase Sgk2 (Homo sapiens) (UniProt Q9HBY8); details: 10 uM
T2 sequence (whole entry): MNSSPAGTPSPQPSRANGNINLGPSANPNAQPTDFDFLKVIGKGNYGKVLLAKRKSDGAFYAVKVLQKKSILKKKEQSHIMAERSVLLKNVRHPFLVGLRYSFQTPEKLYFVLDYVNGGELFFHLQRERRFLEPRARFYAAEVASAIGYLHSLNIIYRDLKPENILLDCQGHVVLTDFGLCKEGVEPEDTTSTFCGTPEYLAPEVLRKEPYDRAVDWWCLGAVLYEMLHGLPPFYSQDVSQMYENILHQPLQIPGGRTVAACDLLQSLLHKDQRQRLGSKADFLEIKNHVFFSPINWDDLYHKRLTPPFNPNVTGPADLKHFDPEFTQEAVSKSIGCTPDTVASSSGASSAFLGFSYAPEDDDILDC
Description: Inhibition of SGK2 at 10 uM

[6] = molecular target: T3, cAMP-dependent protein kinase catalytic subunit PRKX (Homo sapiens) (UniProt P51817); details: 10 uM
T3 sequence (whole entry): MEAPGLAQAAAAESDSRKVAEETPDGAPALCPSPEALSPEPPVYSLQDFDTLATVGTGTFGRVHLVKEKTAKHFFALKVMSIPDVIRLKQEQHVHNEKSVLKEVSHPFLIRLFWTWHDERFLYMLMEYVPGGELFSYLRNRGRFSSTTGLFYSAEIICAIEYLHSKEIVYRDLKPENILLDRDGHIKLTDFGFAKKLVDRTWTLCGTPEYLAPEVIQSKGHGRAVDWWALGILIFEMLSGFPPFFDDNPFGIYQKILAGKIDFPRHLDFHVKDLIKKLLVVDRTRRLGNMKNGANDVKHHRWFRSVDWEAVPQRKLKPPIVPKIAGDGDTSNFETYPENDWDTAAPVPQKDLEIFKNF
Description: Inhibition of PRKX at 10 uM

[7] = molecular target: T4, Dual specificity tyrosine-phosphorylation-regulated kinase 3 (Homo sapiens) (UniProt O43781); details: 10 uM
T4 sequence (whole entry): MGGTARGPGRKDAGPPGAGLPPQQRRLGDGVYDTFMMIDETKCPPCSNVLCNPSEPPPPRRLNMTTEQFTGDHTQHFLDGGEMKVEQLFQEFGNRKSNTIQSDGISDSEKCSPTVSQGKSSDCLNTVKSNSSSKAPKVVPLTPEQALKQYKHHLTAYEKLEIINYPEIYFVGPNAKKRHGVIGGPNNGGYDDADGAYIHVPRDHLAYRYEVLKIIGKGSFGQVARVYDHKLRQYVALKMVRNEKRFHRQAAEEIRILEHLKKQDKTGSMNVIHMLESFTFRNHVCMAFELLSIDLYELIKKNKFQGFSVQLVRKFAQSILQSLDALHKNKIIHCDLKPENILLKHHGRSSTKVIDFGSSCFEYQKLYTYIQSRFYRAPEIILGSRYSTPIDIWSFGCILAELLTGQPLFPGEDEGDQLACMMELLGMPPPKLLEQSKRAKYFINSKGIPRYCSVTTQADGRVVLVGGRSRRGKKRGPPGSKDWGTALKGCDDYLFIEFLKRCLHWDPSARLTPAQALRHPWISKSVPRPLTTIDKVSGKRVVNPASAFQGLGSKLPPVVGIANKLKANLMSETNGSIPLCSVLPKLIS
Description: Inhibition of DYRK3 at 10 uM

[8] = Half life in human liver microsome; format: ADME; details: liver microsomes
[9] = molecular target: Voltage-gated inwardly rectifying potassium channel KCNH2 (Homo sapiens, UniProt Q12809); test: Displacement of [3H]dofetilide from human ERG
[10] = molecular target: Serine/threonine-protein kinase PLK3 (Homo sapiens) (UniProt Q9H4B4); details: 10 uM
Description: Inhibition of PLK3 at 10 uM

[11] = Permeability from basolateral to apical side of human Caco2 cells; format: ADME, cell-based; details: Caco-2, read-out: permeability
[12] = Half life in rat hepatocyte; format: ADME, cell-based, Liver; details: hepatocytes
[13] = molecular target: Rho-associated protein kinase 2 (Homo sapiens, UniProt O75116); details: 10 uM
Description: Inhibition of ROCK2 at 10 uM

[14] = molecular target: Casein kinase I isoform alpha (Homo sapiens) (UniProt P48729); details: 10 uM
Sequence of Casein kinase I isoform alpha (Homo sapiens) (P48729 2-337 limits assumed): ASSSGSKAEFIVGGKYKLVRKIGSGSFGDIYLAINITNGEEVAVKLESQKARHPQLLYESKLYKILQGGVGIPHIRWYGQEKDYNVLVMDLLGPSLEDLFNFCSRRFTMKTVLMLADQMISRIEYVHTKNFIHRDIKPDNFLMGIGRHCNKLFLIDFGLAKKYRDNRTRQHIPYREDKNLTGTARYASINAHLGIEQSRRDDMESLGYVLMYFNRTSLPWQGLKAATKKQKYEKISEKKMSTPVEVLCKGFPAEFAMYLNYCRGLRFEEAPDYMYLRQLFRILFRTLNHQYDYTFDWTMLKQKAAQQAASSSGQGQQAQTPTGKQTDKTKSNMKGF
Description: Inhibition of CK1 at 10 uM

Sequence of Rho-associated protein kinase 1 (Q13464 2-1354 limits assumed): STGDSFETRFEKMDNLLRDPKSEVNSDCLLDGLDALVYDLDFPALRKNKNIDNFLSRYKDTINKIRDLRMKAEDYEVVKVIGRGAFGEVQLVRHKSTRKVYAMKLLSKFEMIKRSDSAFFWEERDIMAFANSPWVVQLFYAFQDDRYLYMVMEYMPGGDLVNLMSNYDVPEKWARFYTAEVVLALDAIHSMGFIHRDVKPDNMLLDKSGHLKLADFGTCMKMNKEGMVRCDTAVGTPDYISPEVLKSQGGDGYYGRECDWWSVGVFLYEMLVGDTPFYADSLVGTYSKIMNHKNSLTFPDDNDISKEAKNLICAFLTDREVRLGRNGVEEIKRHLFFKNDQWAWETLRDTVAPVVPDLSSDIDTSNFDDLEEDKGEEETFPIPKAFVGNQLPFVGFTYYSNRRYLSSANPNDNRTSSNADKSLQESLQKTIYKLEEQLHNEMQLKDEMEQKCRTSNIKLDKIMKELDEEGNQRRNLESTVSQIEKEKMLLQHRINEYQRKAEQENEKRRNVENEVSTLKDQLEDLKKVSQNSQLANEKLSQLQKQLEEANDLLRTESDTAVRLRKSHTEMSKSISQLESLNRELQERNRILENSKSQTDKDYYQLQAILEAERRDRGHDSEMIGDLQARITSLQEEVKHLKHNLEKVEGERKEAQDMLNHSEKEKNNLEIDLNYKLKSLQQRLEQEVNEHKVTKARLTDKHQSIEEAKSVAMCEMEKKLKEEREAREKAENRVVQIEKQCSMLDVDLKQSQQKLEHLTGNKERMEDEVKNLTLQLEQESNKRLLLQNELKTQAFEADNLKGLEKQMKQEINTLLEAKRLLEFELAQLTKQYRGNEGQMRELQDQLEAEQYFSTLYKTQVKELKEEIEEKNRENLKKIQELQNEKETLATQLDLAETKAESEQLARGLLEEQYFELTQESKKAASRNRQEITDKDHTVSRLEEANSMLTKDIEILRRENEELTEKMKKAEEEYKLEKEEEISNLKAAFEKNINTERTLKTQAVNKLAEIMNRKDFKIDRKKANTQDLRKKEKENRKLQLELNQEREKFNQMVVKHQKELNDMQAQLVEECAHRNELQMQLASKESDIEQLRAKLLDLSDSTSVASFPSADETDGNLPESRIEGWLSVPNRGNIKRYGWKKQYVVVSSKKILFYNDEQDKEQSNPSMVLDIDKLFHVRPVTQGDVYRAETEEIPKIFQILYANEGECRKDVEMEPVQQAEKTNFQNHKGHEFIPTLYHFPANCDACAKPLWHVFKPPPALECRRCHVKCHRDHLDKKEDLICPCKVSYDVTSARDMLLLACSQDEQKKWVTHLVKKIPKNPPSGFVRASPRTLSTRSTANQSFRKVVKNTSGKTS
Sequence of Rho-associated protein kinase 2 (O75116 whole entry, looked up, canonical isoform): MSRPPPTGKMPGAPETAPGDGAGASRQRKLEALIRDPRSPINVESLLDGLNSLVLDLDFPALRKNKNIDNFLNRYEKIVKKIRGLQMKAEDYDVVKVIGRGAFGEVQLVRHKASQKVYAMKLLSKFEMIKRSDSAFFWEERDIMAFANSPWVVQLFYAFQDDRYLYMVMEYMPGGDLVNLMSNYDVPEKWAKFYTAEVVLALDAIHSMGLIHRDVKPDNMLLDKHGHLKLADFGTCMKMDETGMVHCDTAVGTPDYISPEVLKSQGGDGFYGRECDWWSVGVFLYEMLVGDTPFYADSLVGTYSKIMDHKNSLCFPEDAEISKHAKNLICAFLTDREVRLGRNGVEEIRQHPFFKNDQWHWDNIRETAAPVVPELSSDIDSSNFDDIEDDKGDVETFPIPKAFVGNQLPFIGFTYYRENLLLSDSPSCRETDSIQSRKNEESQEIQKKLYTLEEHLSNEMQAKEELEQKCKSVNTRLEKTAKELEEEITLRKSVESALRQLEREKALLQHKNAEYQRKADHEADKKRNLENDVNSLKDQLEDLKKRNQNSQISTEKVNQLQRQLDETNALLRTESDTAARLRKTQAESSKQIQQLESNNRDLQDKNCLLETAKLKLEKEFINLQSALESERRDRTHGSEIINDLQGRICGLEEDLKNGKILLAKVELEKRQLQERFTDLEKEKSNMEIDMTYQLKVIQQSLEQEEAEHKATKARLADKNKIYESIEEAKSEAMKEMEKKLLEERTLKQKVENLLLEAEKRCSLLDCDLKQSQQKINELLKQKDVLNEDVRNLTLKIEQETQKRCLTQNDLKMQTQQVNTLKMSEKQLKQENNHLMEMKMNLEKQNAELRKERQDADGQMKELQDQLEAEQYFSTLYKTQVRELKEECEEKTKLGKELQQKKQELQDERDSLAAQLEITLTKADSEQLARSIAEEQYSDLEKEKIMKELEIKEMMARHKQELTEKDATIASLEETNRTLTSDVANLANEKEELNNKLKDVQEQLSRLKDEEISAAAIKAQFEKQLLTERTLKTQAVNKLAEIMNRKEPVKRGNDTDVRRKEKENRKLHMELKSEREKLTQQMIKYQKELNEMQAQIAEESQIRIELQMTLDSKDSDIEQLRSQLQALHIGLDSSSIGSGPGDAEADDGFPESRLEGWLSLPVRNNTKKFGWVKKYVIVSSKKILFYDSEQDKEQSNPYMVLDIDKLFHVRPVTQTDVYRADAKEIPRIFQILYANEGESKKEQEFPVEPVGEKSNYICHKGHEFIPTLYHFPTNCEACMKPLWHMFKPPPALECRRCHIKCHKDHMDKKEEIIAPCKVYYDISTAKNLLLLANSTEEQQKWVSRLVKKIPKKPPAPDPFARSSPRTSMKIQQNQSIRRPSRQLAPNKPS
Sequence of Serine/threonine-protein kinase PLK3 (Homo sapiens) (Q9H4B4 whole entry, looked up): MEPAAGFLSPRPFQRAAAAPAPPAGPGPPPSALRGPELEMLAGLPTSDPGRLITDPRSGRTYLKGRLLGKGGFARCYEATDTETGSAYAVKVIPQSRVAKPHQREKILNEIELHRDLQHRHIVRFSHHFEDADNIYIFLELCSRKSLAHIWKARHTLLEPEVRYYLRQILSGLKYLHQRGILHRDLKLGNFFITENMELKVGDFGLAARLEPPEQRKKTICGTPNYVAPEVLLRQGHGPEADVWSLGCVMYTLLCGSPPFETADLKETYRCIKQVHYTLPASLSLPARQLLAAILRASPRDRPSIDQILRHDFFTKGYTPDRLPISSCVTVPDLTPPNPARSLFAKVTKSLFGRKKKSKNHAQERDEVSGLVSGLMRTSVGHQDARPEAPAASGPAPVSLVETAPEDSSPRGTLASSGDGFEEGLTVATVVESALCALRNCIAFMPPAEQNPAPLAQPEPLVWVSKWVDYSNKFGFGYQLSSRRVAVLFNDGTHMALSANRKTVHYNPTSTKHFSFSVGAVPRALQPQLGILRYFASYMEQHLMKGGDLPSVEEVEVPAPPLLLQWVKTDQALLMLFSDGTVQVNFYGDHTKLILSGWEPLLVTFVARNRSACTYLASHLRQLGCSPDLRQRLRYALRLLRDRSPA
Sequence of Voltage-gated inwardly rectifying potassium channel KCNH2 (Q12809 whole entry): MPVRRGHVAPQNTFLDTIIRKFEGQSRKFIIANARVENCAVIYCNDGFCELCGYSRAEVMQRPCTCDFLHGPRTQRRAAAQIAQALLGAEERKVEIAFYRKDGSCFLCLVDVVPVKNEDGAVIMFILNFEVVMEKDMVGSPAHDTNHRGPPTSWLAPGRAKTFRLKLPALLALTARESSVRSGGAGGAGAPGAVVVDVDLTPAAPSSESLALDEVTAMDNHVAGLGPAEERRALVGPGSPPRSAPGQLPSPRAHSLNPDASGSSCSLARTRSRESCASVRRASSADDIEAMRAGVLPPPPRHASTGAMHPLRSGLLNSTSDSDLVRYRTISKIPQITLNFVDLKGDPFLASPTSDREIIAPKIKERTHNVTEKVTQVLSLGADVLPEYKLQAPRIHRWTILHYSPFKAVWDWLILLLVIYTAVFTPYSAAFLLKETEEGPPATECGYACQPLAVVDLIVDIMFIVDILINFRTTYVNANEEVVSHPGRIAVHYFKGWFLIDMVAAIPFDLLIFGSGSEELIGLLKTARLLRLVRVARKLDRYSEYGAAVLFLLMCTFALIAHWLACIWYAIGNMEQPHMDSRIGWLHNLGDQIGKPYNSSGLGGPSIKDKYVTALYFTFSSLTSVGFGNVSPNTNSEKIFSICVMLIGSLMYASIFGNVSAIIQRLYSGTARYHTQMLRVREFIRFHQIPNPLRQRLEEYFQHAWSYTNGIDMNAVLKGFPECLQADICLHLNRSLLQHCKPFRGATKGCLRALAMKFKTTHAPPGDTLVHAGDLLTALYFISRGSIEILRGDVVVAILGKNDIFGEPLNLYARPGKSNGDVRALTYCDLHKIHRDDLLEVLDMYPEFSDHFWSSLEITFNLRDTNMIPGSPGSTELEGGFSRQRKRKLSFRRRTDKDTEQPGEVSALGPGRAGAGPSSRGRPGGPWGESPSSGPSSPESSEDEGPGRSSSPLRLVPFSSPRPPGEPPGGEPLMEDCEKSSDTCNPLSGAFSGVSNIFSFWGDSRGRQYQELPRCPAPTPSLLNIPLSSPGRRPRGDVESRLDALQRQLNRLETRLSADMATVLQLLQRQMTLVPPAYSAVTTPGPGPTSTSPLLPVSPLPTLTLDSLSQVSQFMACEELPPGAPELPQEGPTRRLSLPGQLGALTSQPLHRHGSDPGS

half-life [1]: > 2 h
inhibition [2]: > 80%
inhibition [3]: > 80%
half-life [4]: > 2 h
inhibition [5]: > 80%
inhibition [6]: > 80%
inhibition [7]: > 80%
half-life [8]: > 2 h
inhibition [10]: > 80%
Papp B→A [11]: 3.6 ×10⁻⁶ cm/s
half-life [12]: 1.17 h
inhibition [13]: > 80%
inhibition [14]: > 80%
SMILES: Nc1nccc2cc(O[C@H]3CCCNC3)ccc12
Ki [9]: 20 µM
